Measured values published in PubChem BioAssay AID248 (DTP/NCI, 2004).
Inconclusive results and toxic doses are left out. No stated cut-off is given here; in the data, active means T/C of 150% or more; inactive means T/C below 125%.

Tested on: L1210 leukemia ip in BDF1 mice, survival T/C
Assay: NCI In Vivo Anticancer Drug Screen. Data for tumor model L1210 Leukemia (intraperitoneal) in B6D2F1 (BDF1) mice
Details: endpoint: mean survival time, higher = longer survival
Outline: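 Each compound was tested against a transplantable tumor grown in mice. The endpoint was survival, with treated animals benchmarked against vehicle controls as a simple ratio.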

[1] = dose: 100.0 mg/kg/injection, schedule: Q01DX001 (ip), vehicle: saline
[2] = dose: 200.0 mg/kg/injection, schedule: Q01DX001 (ip), vehicle: saline
[3] = dose: 400.0 mg/kg/injection, schedule: Q01DX001 (ip), vehicle: saline
[4] = dose: 100.0 mg/kg/injection, schedule: Q01DX001 (ip), vehicle: carboxymethylcellulose (CMC)
[5] = dose: 200.0 mg/kg/injection, schedule: Q01DX001 (ip), vehicle: carboxymethylcellulose (CMC)
[6] = dose: 400.0 mg/kg/injection, schedule: Q01DX001 (ip), vehicle: carboxymethylcellulose (CMC)
[7] = dose: 100.0 mg/kg/injection, schedule: Q04DX002 (ip), vehicle: Klucel (hydroxypropylcellulose) (HPC)
[8] = dose: 200.0 mg/kg/injection, schedule: Q04DX002 (ip), vehicle: Klucel (hydroxypropylcellulose) (HPC)
[9] = dose: 100.0 mg/kg/injection, schedule: Q01DX009 (ip), vehicle: Klucel (hydroxypropylcellulose) (HPC)
[10] = dose: 200.0 mg/kg/injection, schedule: Q01DX009 (ip), vehicle: Klucel (hydroxypropylcellulose) (HPC)
[11] = dose: 400.0 mg/kg/injection, schedule: Q01DX009 (ip), vehicle: Klucel (hydroxypropylcellulose) (HPC)
[12] = dose: 100.0 mg/kg/injection, schedule: Q04DX003 (ip), vehicle: Klucel (hydroxypropylcellulose) (HPC)
[13] = dose: 200.0 mg/kg/injection, schedule: Q04DX003 (ip), vehicle: Klucel (hydroxypropylcellulose) (HPC)
[14] = dose: 100.0 mg/kg/injection, schedule: Q01DX009 (ip), vehicle: saline
[15] = dose: 200.0 mg/kg/injection, schedule: Q01DX009 (ip), vehicle: saline
[16] = dose: 400.0 mg/kg/injection, schedule: Q01DX009 (ip), vehicle: saline
[17] = dose: 400.0 mg/kg/injection, schedule: Q04DX002 (ip), vehicle: Klucel (hydroxypropylcellulose) (HPC)
[18] = dose: 100.0 mg/kg/injection, schedule: Q04DX003 (ip), vehicle: saline with Tween-80
[19] = dose: 400.0 mg/kg/injection, schedule: Q04DX003 (ip), vehicle: saline with Tween-80
[20] = dose: 400.0 mg/kg/injection, schedule: Q04DX003 (ip), vehicle: Klucel (hydroxypropylcellulose) (HPC)
[21] = dose: 100.0 mg/kg/injection, schedule: Q01DX009 (ip), vehicle: saline with Tween-80
[22] = dose: 200.0 mg/kg/injection, schedule: Q01DX009 (ip), vehicle: saline with Tween-80
[23] = dose: 400.0 mg/kg/injection, schedule: Q01DX009 (ip), vehicle: saline with Tween-80
[24] = dose: 100.0 mg/kg/injection, schedule: Q04DX003 (ip), vehicle: saline
[25] = dose: 200.0 mg/kg/injection, schedule: Q04DX003 (ip), vehicle: saline
[26] = dose: 400.0 mg/kg/injection, schedule: Q04DX003 (ip), vehicle: saline

Measured: T/C

CCC1(c2ccccc2)OC1C(=O)OCC(C)C (stereo not given)
inactive: dose: 100.0 mg/kg/injection, schedule: Q04DX002 (ip), vehicle: saline 112 % of control | dose: 200.0 mg/kg/injection, schedule: Q04DX002 (ip), vehicle: saline 97 % of control | dose: 400.0 mg/kg/injection, schedule: Q04DX002 (ip), vehicle: saline 101 % of control

O=C1NCC(CCl)O1 (stereo not given)
inactive: [1] 101 % of control | [2] 91 % of control | [3] 101 % of control

Cc1ccc(Nc2cc(=O)[nH]c(N)n2)cc1
inactive: dose: 100.0 mg/kg/injection, schedule: Q01DX Z (ip), vehicle: methylcellulose (MC) 94 % of control

O=c1[nH]c2c(Br)c([N+](=O)[O-])c(Br)cc2c2ccc(Br)cc12
inactive: [4] 100 % of control | [5] 98 % of control | [6] 91 % of control

O=C(O)CNS(=O)(=O)c1ccccc1
inactive: dose: 100.0 mg/kg/injection, schedule: Q01DX009 (ip), vehicle: carboxymethylcellulose (CMC) 97 % of control | dose: 200.0 mg/kg/injection, schedule: Q01DX009 (ip), vehicle: carboxymethylcellulose (CMC) 101 % of control | dose: 400.0 mg/kg/injection, schedule: Q01DX009 (ip), vehicle: carboxymethylcellulose (CMC) 89 % of control

Oc1ccccc1C=Nc1cc(Cl)ccc1O
inactive: [1] 97 % of control | [2] 95 % of control | [3] 103 % of control

CC1(C)CN1P(=O)(Oc1ccc([N+](=O)[O-])cc1)N1CC1(C)C (stereo not given)
inactive: [7] 110 % of control | [8] 108 % of control

Cc1cc(N(CCCl)CCCl)ccc1C=Nc1ccc(-c2csc(COc3ccccc3)n2)c(Cl)c1
inactive: [4] 95 % of control | [5] 108 % of control | [6] 103 % of control

Oc1ccc2c(c1)CCCC2
inactive: dose: 75.0 mg/kg/injection, schedule: Q04DX003 (ip), vehicle: saline 102 % of control

Cn1nc(SCc2ccccc2)c(=O)[nH]c1=O
inactive: dose: 75.0 mg/kg/injection, schedule: Q01DX001 (ip), vehicle: saline 97 % of control | dose: 150.0 mg/kg/injection, schedule: Q01DX001 (ip), vehicle: saline 104 % of control

CC(C)(C)N(CCC(=O)c1ccccc1)C(=O)c1ccccc1
inactive: [9] 98 % of control | [10] 102 % of control | [11] 88 % of control

Cc1cc(=O)oc2cc(O)ccc12
inactive: [12] 100 % of control | [13] 98 % of control

COc1c(C)c2c(c(O)c1C/C=C(\C)CCC(=O)O)C(=O)OC2
inactive: dose: 12.5 mg/kg/injection, schedule: Q01DX001 (ip), vehicle: saline 96 % of control | dose: 25.0 mg/kg/injection, schedule: Q01DX001 (ip), vehicle: saline 100 % of control | dose: 25.0 mg/kg/injection, schedule: Q01DX009 (ip), vehicle: saline 102 % of control | dose: 50.0 mg/kg/injection, schedule: Q01DX001 (ip), vehicle: saline 103 % of control | dose: 50.0 mg/kg/injection, schedule: Q01DX009 (ip), vehicle: saline 98 % of control | [1] 100 % of control | [14] 107 % of control | [7] 104 % of control | [2] 100 % of control | [15] 118 % of control | [8] 112 % of control | [3] 100 % of control | [16] 124 % of control | [17] 112 % of control

CC1(C)CC(=O)C(C)(C)C(=O)C1 (tested in a mixture with another compound)
inactive: dose: 25.0 mg/kg/injection, schedule: Q04DX002 (ip), vehicle: Klucel (hydroxypropylcellulose) (HPC) 102 % of control | dose: 50.0 mg/kg/injection, schedule: Q04DX002 (ip), vehicle: Klucel (hydroxypropylcellulose) (HPC) 96 % of control | [7] 108 % of control

O=[N+]([O-])C1CC(O)CCC1SSC1CCC(O)CC1[N+](=O)[O-] (stereo not given)
inactive: dose: 100.0 mg/kg/injection, schedule: Q04DX002 (ip), vehicle: other 106 % of control | dose: 200.0 mg/kg/injection, schedule: Q04DX002 (ip), vehicle: other 103 % of control | dose: 400.0 mg/kg/injection, schedule: Q04DX002 (ip), vehicle: other 98 % of control

CN(C)c1ccc(N=Nc2nccs2)cc1
inactive: [18] 91 % of control | [19] 88 % of control

C#CC(O)C1OC(C)(C)OC1C1COC(C)(C)O1 (stereo not given)
inactive: [12] 97 % of control | [13] 92 % of control | [20] 94 % of control

CCCCNC(=O)NCCN(C)c1ccccc1
inactive: [7] 94 % of control | [8] 97 % of control | [17] 102 % of control

C[CH2][Sn]([CH2]c1ccccc1)([c]1ccccc1)[c]1ccccc1
inactive: [12] 95 % of control | [13] 101 % of control | [20] 93 % of control

Cc1cc(C)cc(OC(=O)/C=C/C(=O)Oc2cc(C)cc(C)c2)c1
inactive: [21] 105 % of control | [22] 100 % of control | [23] 102 % of control

CCCCNC(=O)c1c(Cl)c(Cl)c(Cl)c(Cl)c1C(=O)O
inactive: dose: 100.0 mg/kg/injection, schedule: Q04DX002 (ip), vehicle: saline with Tween-80 97 % of control | dose: 200.0 mg/kg/injection, schedule: Q04DX002 (ip), vehicle: saline with Tween-80 90 % of control

C=C(C)C(C(=O)OC)n1scc(NCc2ccccc2)c1=O (stereo not given)
inactive: [24] 91 % of control | [25] 91 % of control | [26] 89 % of control

[Cu+2].[O-]c1ccc(Br)c2cccnc12.[O-]c1ccc(Br)c2cccnc12
inactive: dose: 25.0 mg/kg/injection, schedule: Q01DX001 (ip), vehicle: carboxymethylcellulose (CMC) 103 % of control | dose: 50.0 mg/kg/injection, schedule: Q01DX001 (ip), vehicle: carboxymethylcellulose (CMC) 105 % of control

CCn1/c(=N\N=O)sc2ccccc21
inactive: dose: 100.0 mg/kg/injection, schedule: Q01DX001 (ip), vehicle: Klucel (hydroxypropylcellulose) (HPC) 96 % of control

O=[N+]([O-])c1ccc(N/N=C/c2ccnc3ccccc23)cc1
inactive: [9] 93 % of control | [10] 91 % of control | [11] 91 % of control

O=S(C/C=C/CS(=O)c1ccccc1)c1ccccc1 (stereo not given)
inactive: [7] 105 % of control | [8] 116 % of control | [17] 103 % of control

COc1cc(CC(=O)O)c(OC)cc1CC(=O)O
inactive: [21] 101 % of control | [18] 93 % of control | [22] 99 % of control | dose: 200.0 mg/kg/injection, schedule: Q04DX003 (ip), vehicle: saline with Tween-80 96 % of control | [23] 94 % of control | [19] 94 % of control

CCN(CC)C(N)=O
inactive: [14] 92 % of control | [24] 102 % of control | [15] 118 % of control | [25] 107 % of control | [16] 101 % of control | [26] 107 % of control

CC(=O)NCC1CCCCC1
inactive: dose: 25.0 mg/kg/injection, schedule: Q01DX009 (ip), vehicle: Klucel (hydroxypropylcellulose) (HPC) 98 % of control | dose: 25.0 mg/kg/injection, schedule: Q04DX003 (ip), vehicle: Klucel (hydroxypropylcellulose) (HPC) 100 % of control | dose: 50.0 mg/kg/injection, schedule: Q01DX009 (ip), vehicle: Klucel (hydroxypropylcellulose) (HPC) 92 % of control | dose: 50.0 mg/kg/injection, schedule: Q04DX003 (ip), vehicle: Klucel (hydroxypropylcellulose) (HPC) 102 % of control | [9] 110 % of control | [12] 105 % of control
